The values that follow come from ChEMBL document CHEMBL1201862, “PubChem BioAssay data set” (2004).

The structures appear in SMILES notation.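 Five compound concentrations were applied to cells in 96-well plates for 48 hours; endpoints were derived by simple linear interpolation of the resulting dose-response curve. GI50 is the concentration that inhibits growth by half.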 Active and inactive are the calls of the source. No stated cut-off is given here; in the data, active = GI50 up to about 1.1 µM and inactive = higher.

Test systems include A549; BT-549; CAKI-1; DU-145; HL-60; Hs-578T; K562; LOX IMVI; M14; MDA-MB-435; NCI-H460; PC-3; RXF 393; SF-268; SF-539; SK-MEL-28; SK-MEL-2; SK-MEL-5; SNB-75.
Holding throughout (assay): inhibition of tumour cell growth, NCI panel, 48 h

For `OC1(c2ccc3ccccc3c2)c2c(c3ccccc3c3ccccc23)C2=NCCN21` (stereo not given), the GI50 was 7.1 µM (inactive) with A549; 14.7 µM (inactive) in the assay on BT-549; 11.7 µM (inactive) with CAKI-1; 16.9 µM (inactive) in the assay on DU-145; 6.46 µM (inactive) in the assay with HL-60; 6.14 µM (inactive) in the assay with Hs-578T. For the same molecule, the GI50 in the assay on K562 was 3.81 µM (inactive); in the assay on LOX IMVI it was 2.28 µM (inactive); in the assay with M14 it was 2.12 µM (inactive); in the assay on MDA-MB-435, 2.17 µM (inactive); in the assay with NCI-H460, 4.3 µM (inactive); in the assay on PC-3 it was 4.54 µM (inactive). For the same molecule, the GI50 in the assay with RXF 393 was 2.47 µM (inactive); with SF-268, 5.79 µM (inactive); in the assay on SF-539, 5.45 µM (inactive); with SK-MEL-28 it was 2.12 µM (inactive); in the assay with SK-MEL-2, 7.16 µM (inactive); in the assay with SK-MEL-5 it was 17 µM (inactive). In the assay with SNB-75, the GI50 was 3.11 µM (inactive).
Turning to `Fc1ccc(C(=C2CCN(CCc3ccc4[nH]c(=S)[nH]c4c3)CC2)c2ccc(F)cc2)cc1`, the GI50 was 3.94 µM (inactive) in the assay with A549; 5.98 µM (inactive) in the assay on BT-549; 10.8 µM (inactive) in the assay on CAKI-1; 2.98 µM (inactive) in the assay on DU-145; 2.33 µM (inactive) in the assay on HL-60; 10.9 µM (inactive) with Hs-578T. For the same molecule, the GI50 with K562 was 3.1 µM (inactive); in the assay with LOX IMVI it was 4.9 µM (inactive); with M14 it was 1.83 µM (inactive); in the assay on MDA-MB-435, 1.79 µM (inactive); with NCI-H460, 2.83 µM (inactive); in the assay with PC-3 it was 2.73 µM (inactive). The GI50 in the assay on RXF 393 is 1.85 µM (inactive); in the assay on SF-268, 6.65 µM (inactive); in the assay on SF-539, 2.79 µM (inactive); in the assay with SK-MEL-28, 1.51 µM (inactive); in the assay on SK-MEL-2 it was 2.7 µM (inactive); in the assay with SK-MEL-5 it was 1.84 µM (inactive). Further, the GI50 in the assay on SNB-75 was 2.92 µM (inactive).
As to `CC1(C)CCCCCC(O)C(O)CCC(C)(C)C1=O` (stereo not given), the GI50 in the assay on A549, in the assay on BT-549, in the assay on CAKI-1, with DU-145, in the assay with HL-60 and in the assay on Hs-578T was > 100 µM (inactive) in each case. In addition, the GI50 in the assay on K562, in the assay with LOX IMVI, in the assay with M14, in the assay with MDA-MB-435, in the assay with NCI-H460 and in the assay with PC-3 was > 100 µM (inactive) each time. The GI50 in the assay on RXF 393, with SF-268, with SF-539, with SK-MEL-28, in the assay on SK-MEL-2 and in the assay on SK-MEL-5 was > 100 µM (inactive) throughout. The GI50 in the assay with SNB-75 is > 100 µM (inactive).
In the case of `COCOc1cc(OC)ccc1C/C(=N/O)C(=O)OC`, the GI50 in the assay on A549, in the assay with BT-549, with CAKI-1, with DU-145, with HL-60 and with Hs-578T was > 100 µM (inactive) in each case. Moreover, the GI50 in the assay on K562, in the assay with LOX IMVI, with M14, in the assay on MDA-MB-435, in the assay with NCI-H460 and in the assay with PC-3 was > 100 µM (inactive) throughout. Besides, the GI50 with RXF 393, with SF-268, in the assay on SF-539, with SK-MEL-28, in the assay with SK-MEL-2 and in the assay with SK-MEL-5 was > 100 µM (inactive) each time. Further, the GI50 with SNB-75 was 31.8 µM (inactive).
Regarding `N=C(N)NCCCC(=O)O`, the GI50 in the assay with A549, in the assay on BT-549, with CAKI-1, with DU-145, with HL-60 and with Hs-578T was > 100 µM (inactive) each time. For the same molecule, the GI50 in the assay on K562, with LOX IMVI, in the assay with M14, in the assay on MDA-MB-435, in the assay on NCI-H460 and in the assay with PC-3 was > 100 µM (inactive) throughout. The GI50 in the assay on RXF 393, in the assay with SF-268, in the assay with SF-539, in the assay on SK-MEL-28, in the assay with SK-MEL-2 and with SK-MEL-5 was > 100 µM (inactive) throughout. The GI50 in the assay with SNB-75 is > 100 µM (inactive).
For the molecule `O=C(NCCc1ccccn1)c1ccc2cc(C(=O)N3CC(CCl)c4ccc([N+](=O)[O-])cc43)[nH]c2c1` (stereo not given), the GI50 in the assay on A549 is > 72.9 µM (inactive); with BT-549, > 100 µM (inactive); in the assay on CAKI-1, > 24.2 µM (inactive); in the assay on DU-145, > 52.4 µM (inactive); in the assay with HL-60 it was > 100 µM (inactive); in the assay with Hs-578T, 94.6 µM (inactive). The GI50 was > 100 µM (inactive) in the assay with K562; > 100 µM (inactive) in the assay with LOX IMVI; > 100 µM (inactive) in the assay on M14; > 100 µM (inactive) in the assay with MDA-MB-435; 22.7 µM (inactive) in the assay with NCI-H460; 44.6 µM (inactive) with PC-3. In addition, the GI50 is 7.66 µM (inactive) in the assay on RXF 393; 7.1 µM (inactive) with SF-268; > 43.4 µM (inactive) in the assay on SF-539; > 100 µM (inactive) in the assay on SK-MEL-28; > 100 µM (inactive) in the assay with SK-MEL-2; > 61.5 µM (inactive) in the assay on SK-MEL-5. Further, in the assay on SNB-75, the GI50 was 18.8 µM (inactive).
As for `CC(C)(Oc1ccc(Cl)cc1)C(=O)N(C(=O)N1CCN(c2ccccc2)CC1)c1ccccc1`, the GI50 was 7.46 µM (inactive) in the assay on A549; > 100 µM (inactive) in the assay on BT-549; 7.87 µM (inactive) with CAKI-1; > 100 µM (inactive) in the assay on DU-145; 4.16 µM (inactive) in the assay on HL-60; > 100 µM (inactive) with Hs-578T. Moreover, the GI50 was 3.96 µM (inactive) with K562; > 100 µM (inactive) in the assay with LOX IMVI; 45.7 µM (inactive) with M14; 16.2 µM (inactive) with MDA-MB-435; 3.75 µM (inactive) with NCI-H460; 4.78 µM (inactive) in the assay on PC-3. For the same molecule, the GI50 in the assay on RXF 393 was > 100 µM (inactive); in the assay with SF-268, > 100 µM (inactive); in the assay with SF-539, 34.4 µM (inactive); with SK-MEL-28, > 100 µM (inactive); in the assay on SK-MEL-2 it was > 100 µM (inactive); with SK-MEL-5 it was 4.68 µM (inactive). In addition, in the assay with SNB-75, the GI50 was > 100 µM (inactive).
`COC(=O)C(Cc1ccc(Oc2cc(CC(NC(=O)c3ccccc3)C(=O)OC)ccc2OC)cc1)NC(=O)c1ccccc1` (stereo not given): the GI50 in the assay on A549 is 25.7 µM (inactive); in the assay with BT-549, 26.7 µM (inactive); with CAKI-1 it was 54.8 µM (inactive); in the assay on DU-145 it was 16.9 µM (inactive); in the assay with HL-60, 3.82 µM (inactive); in the assay on Hs-578T it was 23 µM (inactive). The GI50 in the assay on K562 is 2.01 µM (inactive); in the assay on LOX IMVI, 8.26 µM (inactive); with M14 it was 6.95 µM (inactive); in the assay on MDA-MB-435, 18.4 µM (inactive); in the assay with NCI-H460, 22.8 µM (inactive); in the assay with PC-3 it was 22.7 µM (inactive). Further, the GI50 in the assay on RXF 393 was 14.7 µM (inactive); in the assay on SF-268, 19.7 µM (inactive); in the assay with SF-539 it was 30.1 µM (inactive); in the assay on SK-MEL-28, 8.49 µM (inactive); in the assay on SK-MEL-2, 14.5 µM (inactive); with SK-MEL-5, 18.2 µM (inactive). Moreover, in the assay with SNB-75, the GI50 was 29.7 µM (inactive).
Regarding `CCc1ccc2oc(=O)ccc2c1`, the GI50 in the assay with A549 was > 100 µM (inactive); in the assay with BT-549, > 100 µM (inactive); in the assay with CAKI-1, > 100 µM (inactive); in the assay on DU-145, > 10 µM (inactive); in the assay on HL-60, 42.5 µM (inactive); in the assay with Hs-578T, > 100 µM (inactive). The GI50 with K562, with LOX IMVI, with M14, with MDA-MB-435, in the assay with NCI-H460 and in the assay with PC-3 was > 100 µM (inactive) each time. In addition, the GI50 in the assay on RXF 393, in the assay on SF-268, in the assay on SF-539, in the assay with SK-MEL-28, in the assay with SK-MEL-2 and with SK-MEL-5 was > 100 µM (inactive) each time. Further, in the assay with SNB-75, the GI50 is > 100 µM (inactive).
With `CC(C)=CCCC(C)C1=C(O)C(=O)C(C)=CC1=O` (stereo not given), the GI50 in the assay on A549 is 45.5 µM (inactive); with BT-549, 14.6 µM (inactive); in the assay with CAKI-1, 5.89 µM (inactive); in the assay on DU-145, 17.6 µM (inactive); in the assay on HL-60, 0.332 µM (active); in the assay on Hs-578T, 25.1 µM (inactive). For the same molecule, the GI50 was 0.336 µM (active) in the assay on K562; 3.66 µM (inactive) in the assay on LOX IMVI; 17.2 µM (inactive) with M14; 16.7 µM (inactive) in the assay on MDA-MB-435; 27.7 µM (inactive) with NCI-H460; 17.4 µM (inactive) in the assay on PC-3. Further, the GI50 is 4.74 µM (inactive) in the assay with RXF 393; 20.2 µM (inactive) in the assay with SF-268; 19.6 µM (inactive) in the assay on SF-539; 4.24 µM (inactive) in the assay with SK-MEL-28; 17.7 µM (inactive) in the assay with SK-MEL-2; 11.6 µM (inactive) in the assay with SK-MEL-5. In the assay with SNB-75, the GI50 was 18.4 µM (inactive).
